Measurements published in patent US20260274895A1, “DE NOVO DESIGNED MEMBRANE-TRAVERSING AND ORALLY BIOAVAILABLE MACROCYCLES” (UNIVERSITY OF WASHINGTON, priority 2022, published 2026).
Like-named read-outs stand apart in the source and are kept apart here. Where a SMILES comes first, the peptide text is derived from it. [ ]: non-standard residue; d: D form. dNMeI = CC[C@@H](C)[C@@H](NC)C(=O)O; NMeL = CN[C@@H](CC(C)C)C(=O)O; dNMeL = CN[C@H](CC(C)C)C(=O)O; dNMeV = CN[C@@H](C(=O)O)C(C)C; NMeV = CN[C@H](C(=O)O)C(C)C; NMeA = CN[C@@H](C)C(=O)O; dNMeA = CN[C@H](C)C(=O)O; Sar = CNCC(=O)O

Tests used:
[1] = Parallel artificial membrane permeability assay (PAMPA); details: average of three replicates; 16-20 hours incubation, 5% DMSO PBS
[2] = PAMPA
in vivo = details: male, Swiss Albino, mouse; for level at 0.08 h / level at 0.25 h / level at 0.5 h / level at 1 h / level at 3 h / level at 5 h / level at 8 h / level at 24 h: Plasma concentration
[3] = mouse, in vivo, iv
[4] = mouse, in vivo
[5] = PAMPA, PAMPA_Papp_Avg (apparent permeability)
[6] = Plasma exposure, oral bioavailability and tolerability after single-dose IV, SQ and PO administration; details: in vivo

Question: With CC[C@@H](C)[C@H]1NC(=O)[C@@H](CC(C)C)N(C)C(=O)[C@@H]2CCCN2C(=O)[C@H](C(C)C)NC(=O)[C@@H](C)N(C)C(=O)[C@@H]2CCCN2C(=O)[C@@H](CC(C)C)NC(=O)[C@@H](C(C)C)N(C)C(=O)[C@@H]2CCCN2C(=O)[C@H](C)NC(=O)[C@H](C(C)C)NC(=O)[C@@H]2CCCN2C1=O [SEQ ID NO 117, VP*liPVAP*vlP*a] (cyclo(AP[dNMeV][dL]P[dNMeA]VP[dNMeL][dI]PV)) as the molecule, how does the “PAMPA_Papp_Avg (apparent permeability)” value [1] read?
Answer: 0.1 ×10⁻⁶ cm/s

Question: With CC[C@@H](C)[C@H]1NC(=O)[C@H]([C@@H](C)CC)NC(=O)[C@H](CC(C)C)N(C)C(=O)[C@H]2CCCN2C(=O)[C@@H]([C@H](C)CC)NC(=O)[C@@H]([C@H](C)CC)N(C)C(=O)[C@H](CC(C)C)NC(=O)[C@H]2CCCN2C(=O)[C@@H]2CCCN2C(=O)[C@H](C(C)C)NC(=O)[C@H]2CCCN2C1=O [Design D11.3, VPpL*iip*LIip] (cyclo(I[dI][dP]VP[dP]L[dNMeI][dI][dP][NMeL])) as the molecule, how does the “PAMPA_Papp_Avg (apparent permeability)” value [2] read?
Answer: 1.48 ×10⁻⁶ cm/s

Question: What about the level at 0.08 h (in vivo; iv, 1 mg/kg) of the same molecule?
Answer: 3750 ng/mL

Question: What about the level at 0.25 h (in vivo; iv, 1 mg/kg) of the same molecule?
Answer: 3350 ng/mL

Question: What about the level at 0.5 h (in vivo; iv, 1 mg/kg) of the same molecule?
Answer: 2010 ng/mL

Question: And the level at 1 h (in vivo; iv, 1 mg/kg)?
Answer: 1140 ng/mL

Question: What about the level at 3 h (in vivo; iv, 1 mg/kg) of the same molecule?
Answer: 512 ng/mL

Question: And the level at 5 h (in vivo; iv, 1 mg/kg)?
Answer: 267 ng/mL

Question: What about the level at 8 h (in vivo; iv, 1 mg/kg) of the same molecule?
Answer: 235 ng/mL

Question: What about the level at 24 h (in vivo; iv, 1 mg/kg) of the same molecule?
Answer: 27.6 ng/mL

Question: What about the level at 0.08 h (in vivo; po, 10 mg/kg) of the same molecule?
Answer: 69.6 ng/mL

Question: And the level at 0.25 h (in vivo; po, 10 mg/kg)?
Answer: 750 ng/mL

Question: And the level at 0.5 h (in vivo; po, 10 mg/kg)?
Answer: 2520 ng/mL

Question: What about the level at 1 h (in vivo; po, 10 mg/kg) of the same molecule?
Answer: 2960 ng/mL

Question: What about the level at 3 h (in vivo; po, 10 mg/kg) of the same molecule?
Answer: 3500 ng/mL

Question: And the level at 5 h (in vivo; po, 10 mg/kg)?
Answer: 2540 ng/mL

Question: And the level at 8 h (in vivo; po, 10 mg/kg)?
Answer: 1480 ng/mL

Question: What about the level at 24 h (in vivo; po, 10 mg/kg) of the same molecule?
Answer: 95 ng/mL

Question: And the bioavailability (in vivo; sc, 5 mg/kg)?
Answer: 8.48%

Question: What about the level at 0.08 h (in vivo; sc, 5 mg/kg) of the same molecule?
Answer: 12.4 ng/mL

Question: What about the level at 1 h (in vivo; sc, 5 mg/kg) of the same molecule?
Answer: 44.1 ng/mL

Question: And the level at 3 h (in vivo; sc, 5 mg/kg)?
Answer: 128 ng/mL

Question: And the level at 5 h (in vivo; sc, 5 mg/kg)?
Answer: 148 ng/mL

Question: And the level at 8 h (in vivo; sc, 5 mg/kg)?
Answer: 114 ng/mL

Question: And the level at 24 h (in vivo; sc, 5 mg/kg)?
Answer: 57.6 ng/mL

Question: What about the half-life [3] of the same molecule?
Answer: 5.58 h

Question: And the F ([4]; 10 mg/kg)?
Answer: 40.06%

Question: And the AUC0-inf ([4]; iv, 1 mg/kg)?
Answer: 7187.15 ng·h/mL

Question: And the AUC0-last ([4]; iv, 1 mg/kg)?
Answer: 6965.11 ng·h/mL

Question: And the AUCExtra ([4]; iv, 1 mg/kg)?
Answer: 3.09%

Question: And the C0 ([4]; iv, 1 mg/kg)?
Answer: 3957.56 ng/mL

Question: What about the Cl ([4]; iv, 1 mg/kg) of the same molecule?
Answer: 2.32 mL/min/kg

Question: What about the MRT0-last ([4]; iv, 1 mg/kg) of the same molecule?
Answer: 4.64 h

Question: And the T½ ([4]; iv, 1 mg/kg)?
Answer: 5.58 h

Question: What about the Vd ([4]; iv, 1 mg/kg) of the same molecule?
Answer: 1.12 L/kg

Question: What about the AUC0-inf ([4]; po, 10 mg/kg) of the same molecule?
Answer: 28793.58 ng·h/mL

Question: What about the AUC0-last ([4]; po, 10 mg/kg) of the same molecule?
Answer: 28242.38 ng·h/mL

Question: What about the AUCExtra ([4]; po, 10 mg/kg) of the same molecule?
Answer: 1.91%

Question: What about the MRT0-last ([4]; po, 10 mg/kg) of the same molecule?
Answer: 6.32 h

Question: What about the AUC0-inf ([4]; sc, 5 mg/kg) of the same molecule?
Answer: 3047.15 ng·h/mL

Question: What about the AUC0-last ([4]; sc, 5 mg/kg) of the same molecule?
Answer: 2122.81 ng·h/mL

Question: What about the AUCExtra ([4]; sc, 5 mg/kg) of the same molecule?
Answer: 30.33%

Question: And the MRT0-last ([4]; sc, 5 mg/kg)?
Answer: 10.71 h

Question: With CC(C)C[C@@H]1C(=O)N[C@H](CC(C)C)C(=O)N2CCC[C@@H]2C(=O)N2CCC[C@H]2C(=O)N(C)[C@H](CC(C)C)C(=O)N[C@H](CC(C)C)C(=O)N2CCC[C@@H]2C(=O)N2CCC[C@H]2C(=O)N1C [Design D8.4, pP*llpP*ll] (cyclo([dNMeL][dL][dP]P[dNMeL][dL][dP]P)) as the molecule, how does the “PAMPA_Papp_Avg (apparent permeability)” value [2] read?
Answer: 0.136 ×10⁻⁶ cm/s

Question: And the Papp [5]?
Answer: 0.0358 ×10⁻⁶ cm/s

Question: For CC[C@@H](C)[C@H]1NC(=O)[C@@H]2CCCN2C(=O)[C@@H]([C@H](C)CC)NC(=O)CN(C)C(=O)[C@H](CC(C)C)NC(=O)[C@@H](Cc2ccccc2)NC(=O)[C@H](CC(C)C)N(C)C(=O)[C@H]2CCCN2C(=O)[C@@H](CC(C)C)NC(=O)[C@H](CC(C)C)NC(=O)[C@H]2CCCN2C1=O [Design D11.2] (cyclo(L[Sar][dI]P[dI][dP]L[dL][dP][NMeL][dF])), which bioavailability [6] is on record?
Answer: 7.5 to 11%

Question: With CC(C)C[C@@H]1C(=O)N2CCC[C@@H]2C(=O)N(C)[C@@H](C(C)C)C(=O)N[C@@H](C(C)C)C(=O)N2CCC[C@H]2C(=O)N2CCC[C@@H]2C(=O)N[C@@H](C)C(=O)N[C@H](C(C)C)C(=O)N(C)[C@@H](CC(C)C)C(=O)N[C@@H](C)C(=O)N1C [Design D10.6, PpAv*LA*lp*VV] (cyclo(A[dNMeL][dP][NMeV]VP[dP]A[dV][NMeL])) as the molecule, how does the Papp [5] read?
Answer: 0.509 ×10⁻⁶ cm/s

Question: Which Papp [5] does the source give for CC(C)C[C@@H]1NC(=O)[C@@H](C(C)C)NC(=O)[C@H](CC(C)C)N(C)C(=O)[C@H]2CCCN2C(=O)[C@@H](C(C)C)NC(=O)[C@H]2CCCN2C(=O)[C@@H](C(C)C)NC(=O)[C@@H](Cc2ccccc2)N(C)C(=O)[C@H](CC(C)C)N(C)C1=O (single isomer, unassigned) [Design D9.8.p2, *LvL*L*fvpvp] here?
Answer: 0.255 ×10⁻⁶ cm/s

Question: For CC[C@H](C)[C@@H]1NC(=O)[C@@H]2CCCN2C(=O)[C@H]2CCCN2C(=O)[C@@H](Cc2ccccc2)NC(=O)[C@@H](CC(C)C)N(C)C(=O)[C@H](C(C)C)NC(=O)[C@@H](CC(C)C)NC(=O)[C@@H]2CCCN2C(=O)[C@H]2CCCN2C(=O)[C@@H](C)N(C)C(=O)[C@H](C(C)C)N(C)C1=O [Design D11.21, PI*V*apPlV*lfp] (cyclo(I[NMeV][dNMeA][dP]P[dL]V[dNMeL][dF][dP]P)), which Papp [5] is on record?
Answer: 0.206 ×10⁻⁶ cm/s

Question: With CC(C)C[C@@H]1C(=O)N[C@H](C)C(=O)N[C@@H](C(C)C)C(=O)N2CCC[C@@H]2C(=O)N[C@H](C(C)C)C(=O)N2CCC[C@@H]2C(=O)N2CCC[C@H]2C(=O)N[C@H](C)C(=O)N(C)[C@H](CC(C)C)C(=O)N1C [Design D9.29, vpPa*l*laVp] (cyclo([dA][dNMeL][dNMeL][dA]V[dP][dV][dP]P)) as the molecule, how does the Papp [5] read?
Answer: 0.664 ×10⁻⁶ cm/s

Question: With CC[C@@H](C)[C@H]1NC(=O)[C@H](C(C)C)NC(=O)[C@H]2CCCN2C(=O)[C@@H]2CCCN2C(=O)[C@H](CC(C)C)N(C)C(=O)[C@H](C)N(C)C(=O)[C@@H](CC(C)C)N(C)C(=O)[C@H](C)NC(=O)[C@@H](Cc2ccccc2)NC(=O)[C@@H]2CCCN2C1=O [Design D10.25, fA*l*A*LPpViP] (cyclo(A[dNMeL][NMeA][NMeL]P[dP]V[dI]P[dF])) as the molecule, how does the Papp [5] read?
Answer: 0.756 ×10⁻⁶ cm/s

Question: Which Papp [5] does the source give for CC[C@H](C)[C@@H]1NC(=O)[C@H]2CCCN2C(=O)[C@@H]2CCCN2C(=O)[C@@H](C(C)C)NC(=O)[C@@H](C)N(C)C(=O)[C@H](C)N(C)C(=O)[C@@H](CC(C)C)N(C)C(=O)[C@@H](C(C)C)NC1=O [Design D8.26, v*l*A*avPpI] (cyclo(I[dV][dNMeL][NMeA][dNMeA][dV]P[dP])) here?
Answer: 0.544 ×10⁻⁶ cm/s

Question: With CSCC[C@@H]1NC(=O)[C@H](CC(C)C)NC(=O)[C@@H]2CCCN2C(=O)[C@H]2CCCN2C(=O)[C@@H](C)NC(=O)[C@H]2CCCN2C(=O)[C@@H](CC(C)C)NC(=O)[C@@H](C)N(C)C(=O)[C@H](CC(C)C)N(C)C(=O)[C@@H](C)N(C)C1=O [Design D10.40, M*a*L*alpapPL] (cyclo(LM[dNMeA][NMeL][dNMeA][dL][dP][dA][dP]P)) as the molecule, how does the Papp [5] read?
Answer: 0.34 ×10⁻⁶ cm/s

Question: Which “PAMPA_Papp_Avg (apparent permeability)” value [1] does the source give for CC(C)C[C@@H]1NC(=O)[C@H](CC(C)C)N(C)C(=O)[C@H]2CCCN2C(=O)[C@H]2CCCN2C(=O)[C@H](CC(C)C)NC(=O)[C@@H](CC(C)C)N(C)C(=O)[C@@H](C)NC(=O)[C@@H](CC(C)C)N(C)C(=O)[C@H]2CCCN2C(=O)[C@@H](CC(C)C)NC(=O)[C@@H](C)N(C)C1=O [Design D11.15, Lpp*LL*alp*la*l] (cyclo(L[dNMeA][dL][dP][dNMeL][dA][dNMeL]L[dP][dP][NMeL])) here?
Answer: 1.29 ×10⁻⁶ cm/s

Question: For CC(C)C[C@H]1NC(=O)[C@H]2CCCN2C(=O)[C@@H]2CCCN2C(=O)[C@@H](Cc2ccccc2)NC(=O)[C@@H](C(C)C)NC(=O)[C@H](CC(C)C)N(C)C(=O)[C@@H](Cc2ccccc2)NC1=O (single isomer, unassigned) [Design D7.7.p2, Pplf*Lvf], which Papp [5] is on record?
Answer: 9.06 ×10⁻⁶ cm/s
